The structures appear in SMILES notation.

In one test the target is T1, TrkA (Homo sapiens, UniProt P04629).
T1 construct: expressed in transfected cells; host or cells: U2OS
Briefly: Enzyme Fragment Complementation cell-based assay, TrkA. The conditions noted are these: U2OS-cells over-expressing TrkA; ligand 10 ng/mL; 3 hours incubation. The method in brief:
(§1)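 U2OS cells overexpressing TrkA, TrkB, TrkC or FGFR1, with receptor and SHC1 fused to complementary beta-galactosidase fragments. Compound pre-mixed with cognate ligand (NGF, BDNF, NT-3 or bFGF; 10 ng/mL final), 3 h at room temperature. Beta-galactosidase substrate with detergent added for 60 min; luminescence read.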

In another test the target is T2, IGF1R (Homo sapiens, UniProt P08069).
T2 construct: expressed in transfected cells; host or cells: HEK293 (cryopreserved)
Briefly: Enzyme Fragment Complementation cell-based assay, IGF1R. Conditions: cryopreserved HEK293-cells expressing IGFR1; ligand 10 ng/mL; 3 hours incubation. The source says: (§2) A high throughput cell-based screen has been used to identify positive modulators of TrkA, TrkB and TrkC. The screen involves the use of cell-based assay overexpressing TrkA, TrkB or TrkC. The purpose of the assay is to identify compounds that modulate neurotrophin signalling (Forsell et al 2012). The assay can be used in inhibitor mode using a high concentration of ligand, in modulator mode using an intermediate concentration and in agonist mode using a low concentration of ligand.
(§3) The assay uses Enzyme Fragment Complementation (EFC) technique, which is a proximity-based assay. Briefly, cells used in this assay over-express two fusion proteins, i.e. the receptor, which can be either one of TrkA, TrkB, TrkC, IGF1R or FGFR1, fused to a small peptide of beta-galactosidase and an adaptor protein, i.e. SHC1 (or any other Trk-adaptor protein) fused to the major part of beta-galactosidase. […] The proximity between the small activating peptide on the receptor and the major part of beta-galactosidase on the adaptor protein leads to an active beta-galactosidase enzyme. The activation of the receptor is quantified by measuring the amount of active beta-galactosidase by its conversion of a non-luminescent substrate into a luminescent product.
(§4) U2OS-cells, over-expressing TrkA or TrkB or TrkC, are plated in 96- or 384-well plates and incubated overnight. Alternatively, cryopreserved HEK293-cells expressing IGFR1 or cryopreserved U2OS-cells expressing FGFR1 were plated in 96- or 384-well plates. On the following day, test compound was pre-mixed with ligand (NGF, BDNF, NT-3, IGF-1 or basic fibroblast growth factor (bFGF(FGF-2))) and the ligand-compound mixture is then added to the cells to yield a final ligand concentration of 10 ng/mL. After 3 hours of incubation at room temperature, the incubation is stopped by the addition of a beta-galactosidase substrate mixture containing detergents. The substrate mixture is incubated for 60 minutes at ambient temperature. The luminescence is thereafter read by the use of a plate reader.

The target in the next test is T3, TrkB (Homo sapiens, UniProt Q16620).
T3 construct: expressed in transfected cells; host or cells: U2OS
The test is described as follows: Enzyme Fragment Complementation cell-based assay, TrkB. Conditions: U2OS-cells over-expressing TrkB; ligand 10 ng/mL; 3 hours incubation. A digest of the protocol:
as §1

The target of another test is T4, FGFR1 (Homo sapiens, UniProt P11362).
T4 construct: expressed in transfected cells; host or cells: U2OS (cryopreserved)
The test is described as follows: Enzyme Fragment Complementation cell-based assay, FGFR1. The conditions noted are these: cryopreserved U2OS-cells expressing FGFR1; ligand 10 ng/mL; 3 hours incubation.
Text: as §2, §3, §4

The test system of test [1] is mice treated with scopolamine. Briefly: Passive avoidance task. Type of test: in vivo. The conditions noted are these: C57/Bl6 mice; s.c. once per day for 4 days prior to PA training; scopolamine 0.3 mg/kg s.c. 30 min prior to training; FIG. 1. As to the method:
Passive avoidance (PA) is an aversive learning task based on classical (Pavlovian) fear conditioning that allows for analysis of both facilitation and impairment of memory function by adjusting the unconditioned stimulus, i.e. the electrical foot shock. Commonly a cognitive-impairing agent is administered to the animals to mimic the neurochemical disturbances present in various cognitive disorders e.g. cholinergic (scopolamine) and glutamatergic (MK-801) deficits.
Prior to testing, the animals are brought to the experimental room where they are allowed to habituate for 60 min. The test is conducted using a modified shuttle box with two communicating compartments of equal size with a small sliding door built into the separating wall and a stainless-steel bar floor. One of the compartments is not illuminated and thus black whereas the other compartment (the light one) is illuminated by an electric bulb, installed on the top of a plexiglass cover. The PA training is conducted in a single session. […] Latency to cross over into the dark compartment (training latency) is recorded. […] The latency to cross over into the dark compartment with all four feet is measured (retention latency) as well as time in bright compartment and a number of other relevant parameters (e.g. number of visits in the dark compartment). […]

In the next test the target is T5, TrkC (Homo sapiens, UniProt Q16288).
T5 construct: expressed in transfected cells; host or cells: U2OS
The test is described as follows: Enzyme Fragment Complementation cell-based assay, TrkC. The conditions noted are these: U2OS-cells over-expressing TrkC; ligand 10 ng/mL; 3 hours incubation.
Text: as §2, §3, §4

Test [2] has as its system ephrin type-B receptor 2 (EphB2). Conditions: Suzuki et al., FEBS Open Bio 2016; cited from earlier work.

T4 sequence (P11362 22-822): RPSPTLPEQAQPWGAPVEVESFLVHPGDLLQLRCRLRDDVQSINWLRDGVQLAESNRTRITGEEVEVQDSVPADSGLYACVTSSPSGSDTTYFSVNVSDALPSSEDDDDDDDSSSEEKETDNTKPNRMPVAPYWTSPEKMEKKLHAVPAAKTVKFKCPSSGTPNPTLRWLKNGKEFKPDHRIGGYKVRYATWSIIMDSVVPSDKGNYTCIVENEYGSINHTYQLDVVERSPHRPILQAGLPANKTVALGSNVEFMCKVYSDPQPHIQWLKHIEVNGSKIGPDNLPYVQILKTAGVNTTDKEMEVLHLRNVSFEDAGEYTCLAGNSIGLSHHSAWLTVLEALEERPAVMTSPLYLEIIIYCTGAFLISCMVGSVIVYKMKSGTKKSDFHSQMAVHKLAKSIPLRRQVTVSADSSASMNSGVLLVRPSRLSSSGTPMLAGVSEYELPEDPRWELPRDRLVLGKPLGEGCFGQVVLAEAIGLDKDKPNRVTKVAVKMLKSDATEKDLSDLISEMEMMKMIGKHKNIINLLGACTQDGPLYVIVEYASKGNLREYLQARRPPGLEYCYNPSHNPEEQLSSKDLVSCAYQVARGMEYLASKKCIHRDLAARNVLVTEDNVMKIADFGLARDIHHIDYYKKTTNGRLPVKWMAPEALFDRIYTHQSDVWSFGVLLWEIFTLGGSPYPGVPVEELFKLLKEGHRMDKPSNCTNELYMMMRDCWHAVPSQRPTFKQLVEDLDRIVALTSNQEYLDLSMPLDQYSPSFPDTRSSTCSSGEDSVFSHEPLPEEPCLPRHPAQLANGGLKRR
T1 sequence (P04629 33-796): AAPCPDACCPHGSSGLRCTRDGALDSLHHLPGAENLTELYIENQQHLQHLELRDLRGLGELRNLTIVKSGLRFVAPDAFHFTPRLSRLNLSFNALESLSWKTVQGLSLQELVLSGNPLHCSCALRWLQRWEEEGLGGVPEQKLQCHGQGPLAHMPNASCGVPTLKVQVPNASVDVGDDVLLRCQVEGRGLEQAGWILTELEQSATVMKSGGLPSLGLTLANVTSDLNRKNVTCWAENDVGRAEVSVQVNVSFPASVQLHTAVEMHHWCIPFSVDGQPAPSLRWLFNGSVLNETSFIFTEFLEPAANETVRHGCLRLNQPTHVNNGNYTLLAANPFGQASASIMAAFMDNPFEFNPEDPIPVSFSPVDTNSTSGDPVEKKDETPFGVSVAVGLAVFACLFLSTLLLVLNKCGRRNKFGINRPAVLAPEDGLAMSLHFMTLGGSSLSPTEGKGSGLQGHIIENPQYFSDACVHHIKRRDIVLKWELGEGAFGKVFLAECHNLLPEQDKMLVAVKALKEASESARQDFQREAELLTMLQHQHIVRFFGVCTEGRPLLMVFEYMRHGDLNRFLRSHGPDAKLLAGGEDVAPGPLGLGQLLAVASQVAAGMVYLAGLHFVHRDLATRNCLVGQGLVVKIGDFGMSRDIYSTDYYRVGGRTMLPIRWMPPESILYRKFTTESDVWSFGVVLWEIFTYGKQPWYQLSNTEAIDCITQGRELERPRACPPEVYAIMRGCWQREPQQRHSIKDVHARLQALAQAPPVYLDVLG
T3 sequence (Q16620 32-822): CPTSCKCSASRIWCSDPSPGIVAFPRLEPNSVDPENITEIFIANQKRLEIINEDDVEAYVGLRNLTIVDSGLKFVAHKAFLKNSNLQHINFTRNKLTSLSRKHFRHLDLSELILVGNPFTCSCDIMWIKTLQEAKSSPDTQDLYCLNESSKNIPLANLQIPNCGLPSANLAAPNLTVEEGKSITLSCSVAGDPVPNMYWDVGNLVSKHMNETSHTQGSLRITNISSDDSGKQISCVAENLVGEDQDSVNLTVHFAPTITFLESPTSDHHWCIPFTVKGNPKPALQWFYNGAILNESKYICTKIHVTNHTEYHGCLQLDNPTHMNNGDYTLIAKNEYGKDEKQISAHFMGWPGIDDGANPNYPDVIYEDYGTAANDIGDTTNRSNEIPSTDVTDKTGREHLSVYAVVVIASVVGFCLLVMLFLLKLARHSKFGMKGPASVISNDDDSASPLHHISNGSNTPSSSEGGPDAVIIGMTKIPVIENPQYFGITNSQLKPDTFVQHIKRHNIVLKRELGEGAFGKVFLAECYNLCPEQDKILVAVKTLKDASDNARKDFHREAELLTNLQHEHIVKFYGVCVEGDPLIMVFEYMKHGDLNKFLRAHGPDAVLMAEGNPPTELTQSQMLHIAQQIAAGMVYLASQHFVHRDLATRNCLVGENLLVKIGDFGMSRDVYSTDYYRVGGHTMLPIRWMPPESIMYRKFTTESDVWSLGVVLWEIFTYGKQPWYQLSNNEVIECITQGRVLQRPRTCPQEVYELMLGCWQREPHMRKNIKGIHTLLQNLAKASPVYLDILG
T2 sequence (P08069 31-736 limits assumed): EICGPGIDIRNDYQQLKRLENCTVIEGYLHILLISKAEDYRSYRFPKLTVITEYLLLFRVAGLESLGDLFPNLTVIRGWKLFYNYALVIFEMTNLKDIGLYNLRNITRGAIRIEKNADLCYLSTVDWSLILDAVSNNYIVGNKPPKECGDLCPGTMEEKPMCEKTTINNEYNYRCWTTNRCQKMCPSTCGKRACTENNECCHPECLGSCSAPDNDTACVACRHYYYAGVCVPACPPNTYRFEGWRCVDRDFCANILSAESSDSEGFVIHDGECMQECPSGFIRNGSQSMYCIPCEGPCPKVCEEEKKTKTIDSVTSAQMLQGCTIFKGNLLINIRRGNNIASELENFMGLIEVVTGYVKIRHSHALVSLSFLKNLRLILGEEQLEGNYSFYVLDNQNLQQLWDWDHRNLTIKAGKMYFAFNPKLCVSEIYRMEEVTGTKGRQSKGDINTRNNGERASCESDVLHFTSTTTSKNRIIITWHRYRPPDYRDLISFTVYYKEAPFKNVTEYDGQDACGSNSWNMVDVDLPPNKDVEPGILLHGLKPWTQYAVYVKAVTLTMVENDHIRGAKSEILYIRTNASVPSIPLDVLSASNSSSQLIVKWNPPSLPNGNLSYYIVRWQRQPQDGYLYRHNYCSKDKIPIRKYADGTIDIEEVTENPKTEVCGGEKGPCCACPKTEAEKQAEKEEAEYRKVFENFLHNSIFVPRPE
T2 sequence (P08069 741-1367 limits assumed): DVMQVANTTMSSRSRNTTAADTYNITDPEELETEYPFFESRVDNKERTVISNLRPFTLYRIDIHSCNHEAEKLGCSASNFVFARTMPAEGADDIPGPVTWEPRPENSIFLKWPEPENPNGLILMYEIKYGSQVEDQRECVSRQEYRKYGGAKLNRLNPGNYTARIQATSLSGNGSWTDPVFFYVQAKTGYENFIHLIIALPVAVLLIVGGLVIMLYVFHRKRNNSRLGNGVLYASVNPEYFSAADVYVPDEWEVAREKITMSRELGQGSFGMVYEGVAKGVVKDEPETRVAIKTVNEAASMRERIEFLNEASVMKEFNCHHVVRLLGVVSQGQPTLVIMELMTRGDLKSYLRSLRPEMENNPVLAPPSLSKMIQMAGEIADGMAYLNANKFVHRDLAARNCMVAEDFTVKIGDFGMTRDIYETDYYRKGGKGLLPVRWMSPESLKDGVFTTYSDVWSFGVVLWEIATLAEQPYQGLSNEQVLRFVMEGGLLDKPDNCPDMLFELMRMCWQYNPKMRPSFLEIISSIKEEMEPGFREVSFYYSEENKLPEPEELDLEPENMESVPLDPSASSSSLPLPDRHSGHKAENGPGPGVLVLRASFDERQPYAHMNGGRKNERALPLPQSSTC
T5 sequence (Q16288 32-839): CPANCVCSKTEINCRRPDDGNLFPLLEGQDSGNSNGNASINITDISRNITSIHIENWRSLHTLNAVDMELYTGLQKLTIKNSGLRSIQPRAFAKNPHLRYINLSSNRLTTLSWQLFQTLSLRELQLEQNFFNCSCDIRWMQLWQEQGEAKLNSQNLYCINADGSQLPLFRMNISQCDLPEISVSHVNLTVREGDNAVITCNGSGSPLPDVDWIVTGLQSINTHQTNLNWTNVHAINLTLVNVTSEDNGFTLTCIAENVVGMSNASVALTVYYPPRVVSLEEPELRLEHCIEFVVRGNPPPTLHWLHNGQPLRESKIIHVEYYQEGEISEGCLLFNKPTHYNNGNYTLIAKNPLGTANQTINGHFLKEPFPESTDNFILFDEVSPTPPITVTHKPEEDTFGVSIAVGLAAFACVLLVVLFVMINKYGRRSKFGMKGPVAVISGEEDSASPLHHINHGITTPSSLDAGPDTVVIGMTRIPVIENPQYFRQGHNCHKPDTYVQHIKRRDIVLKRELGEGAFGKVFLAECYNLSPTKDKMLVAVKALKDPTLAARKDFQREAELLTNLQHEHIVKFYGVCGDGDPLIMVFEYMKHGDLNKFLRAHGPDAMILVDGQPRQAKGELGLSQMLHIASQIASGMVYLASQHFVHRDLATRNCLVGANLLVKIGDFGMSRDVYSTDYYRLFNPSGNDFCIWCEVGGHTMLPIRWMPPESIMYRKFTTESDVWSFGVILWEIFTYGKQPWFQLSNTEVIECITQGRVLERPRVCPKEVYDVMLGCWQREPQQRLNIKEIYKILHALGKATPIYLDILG

In general, EC50 refers to the concentration needed to bring the measured effect to its halfway point. Lower therefore signals greater potency. For the compound `O=c1[nH]c(=O)n(-c2ccc(Oc3ccc(Cl)cc3)cc2)c(=O)n1-c1ccccc1` [Example 7, 1-[4-(4-chlorophenoxy)phenyl]-3-phenyl-1,3,5-triazinane-2,4,6-trione], the values for the EC50 on TrkA and at IGF1R were 3900 nM and 2600 nM, respectively.
On to `Cc1cc(-n2c(=O)[nH]c(=O)n(-c3ccccc3)c2=O)ccc1Oc1ccccc1` [Example 5, 1-(3-methyl-4-phenoxyphenyl)-3-phenyl-1,3,5-triazinane-2,4,6-trione], for which the EC50 on TrkA is 340 nM; on TrkB, 390 nM; on FGFR1 it was 290 nM; on IGF1R, 250 nM. In addition, the “retention latency within the bright area (cognitive function)” value in test [1] was “increased retention latency”.
In the case of `O=c1[nH]c(=O)n(-c2ccc(Oc3ccccc3)cc2)c(=O)n1-c1ccccc1` [Example 1, 1-(4-phenoxyphenyl)-3-phenyl-1,3,5-triazinane-2,4,6-trione], the EC50 at TrkA came to 1300 nM; at TrkB, 1400 nM; at TrkC, 1400 nM; at FGFR1, 890 nM; at IGF1R, 1800 nM.
Take `COc1cc(-n2c(=O)[nH]c(=O)n(-c3ccccc3)c2=O)ccc1Oc1ccccc1` [Example 11, 1-(3-methoxy-4-phenoxyphenyl)-3-phenyl-1,3,5-triazinane-2,4,6-trione]: the EC50 on TrkA was found to be 320 nM; at TrkB, 450 nM; on FGFR1, 340 nM; at IGF1R it was 220 nM.
With `O=c1[nH]c(=O)n(-c2ccc(N3CCOCC3)cc2)c(=O)n1-c1ccc(Oc2ccccc2)cc1` [Example 10, 1-[4-(morpholin-4-yl)phenyl]-3-(4-phenoxyphenyl)-1,3,5-triazinane-2,4,6-trione], the EC50 on TrkA amounted to 1100 nM; at TrkB, 2200 nM; at FGFR1, 2800 nM.
Turning to `N#Cc1ccc(Oc2ccc(-n3c(=O)[nH]c(=O)n(-c4ccccc4)c3=O)cc2)cc1` [Example 8, 4-[4-(2,4,6-trioxo-3-phenyl-1,3,5-triazinan-1-yl)phenoxy]benzonitrile], the figures for the EC50 on TrkA and on IGF1R were 1600 nM and 2200 nM, respectively.
Take `COc1cc(Oc2ccccc2)ccc1-n1c(=O)[nH]c(=O)n(-c2ccccc2)c1=O` [Example 9, 1-(2-methoxy-4-phenoxyphenyl)-3-phenyl-1,3,5-triazinane-2,4,6-trione]: the EC50 on TrkA turned out to be 230 nM; at TrkB, 270 nM; on FGFR1 it was 170 nM; at IGF1R, 270 nM.
In the case of `Cc1cc(-n2c(=O)[nH]c(=O)n(C)c2=O)ccc1Oc1ccc(SC(F)(F)F)cc1` [toltrazuril, 1-methyl-3-(3-methyl-4-{4-[(trifluoromethyl)sulfanyl]phenoxy}phenyl)-1,3,5-triazinane-2,4,6-trione], the “inhibition of binding of β-amyloid oligomers to EphB2” value in test [2] is 30%.
As to `N#Cc1cc(-n2c(=O)[nH]c(=O)n(-c3ccccc3)c2=O)ccc1Oc1ccccc1` [Example 12, 2-phenoxy-5-(2,4,6-trioxo-3-phenyl-1,3,5-triazinan-1-yl)benzonitrile], the EC50 on TrkA is 5900 nM; on TrkB it was 2400 nM; at FGFR1, 4700 nM.
Turning to `COc1cccc(-n2c(=O)[nH]c(=O)n(-c3ccc(Oc4ccccc4)cc3)c2=O)c1` [Example 4, 1-(3-methoxyphenyl)-3-(4-phenoxyphenyl)-1,3,5-triazinane-2,4,6-trione], the EC50 amounted to 830 nM at TrkA, 950 nM on TrkB, 580 nM at FGFR1 and 840 nM at IGF1R.
As to `O=c1[nH]c(=O)n(-c2ccc(OCc3ccccc3)cc2)c(=O)n1-c1ccccc1` [Example 6, 1-[4-(benzyloxy)phenyl]-3-phenyl-1,3,5-triazinane-2,4,6-trione], the EC50 at TrkA and on IGF1R was 4400 nM throughout.
`Cc1cc(-n2c(=O)[nH]c(=O)n(-c3cccc4[nH]ccc34)c2=O)ccc1Oc1ccccc1` [Example 49, 1-(1H-indol-4-yl)-3-(3-methyl-4-phenoxyphenyl)-1,3,5-triazinane-2,4,6-trione]: the EC50 was 190 nM on TrkA, 790 nM on TrkB and 2000 nM on TrkC.

The record behind these values is patent US12209071B2, “Triazine derivatives for treating diseases relating to neurotrophins” (AlzeCure Pharma AB, priority 2018, dated 2025).
